In ChEMBL document CHEMBL4308846, “How Selective Are Pharmacological Inhibitors of Cell-Cycle-Regulating Cyclin-Dependent Kinases?” (J Med Chem, 2018):
Active and inactive are the calls of the source. The calls are words filed in the database; no cut-off is given here.

Experiments:
[1] = molecular target: Cyclin-dependent kinase 4/cyclin D1 (Homo sapiens, UniProt P11802); experiment: biochemical
[2] = molecular target: Cyclin-dependent kinase 7 (Homo sapiens) (UniProt P50613); experiment: Inhibition of CDK7 in human HCT116 cells assessed as induction of dephosphorylation of RNA polymerase 2 S2/S5 residues at 0.5 to 1 uM after 24 hrs by Western blot analysis; type: cell-based
CDK7/Cyclin H/MNAT1 = CDK7/Cyclin H/MNAT1 (Homo sapiens, UniProt P50613); experiment: biochemical
Sequence of CDK7/Cyclin H/MNAT1 (P51946 whole entry): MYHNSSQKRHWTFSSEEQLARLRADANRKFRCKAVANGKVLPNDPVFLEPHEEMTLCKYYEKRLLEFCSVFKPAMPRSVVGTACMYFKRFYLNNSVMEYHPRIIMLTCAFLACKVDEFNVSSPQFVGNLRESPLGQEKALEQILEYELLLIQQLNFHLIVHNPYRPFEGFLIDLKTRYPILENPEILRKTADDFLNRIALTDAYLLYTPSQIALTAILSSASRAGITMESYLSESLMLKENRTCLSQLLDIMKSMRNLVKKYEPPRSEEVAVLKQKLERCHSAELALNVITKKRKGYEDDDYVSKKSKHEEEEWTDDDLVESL
Sequence of CDK7/Cyclin H/MNAT1 (P50613 whole entry): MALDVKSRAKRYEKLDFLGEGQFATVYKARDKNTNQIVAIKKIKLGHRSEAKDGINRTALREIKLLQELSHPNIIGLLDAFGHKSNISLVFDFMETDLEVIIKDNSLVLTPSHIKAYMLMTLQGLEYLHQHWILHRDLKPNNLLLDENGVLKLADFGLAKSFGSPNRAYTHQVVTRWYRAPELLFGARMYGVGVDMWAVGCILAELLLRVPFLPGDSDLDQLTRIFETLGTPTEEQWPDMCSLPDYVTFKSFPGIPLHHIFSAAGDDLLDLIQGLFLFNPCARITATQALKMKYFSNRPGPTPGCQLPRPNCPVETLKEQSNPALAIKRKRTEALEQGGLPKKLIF
Sequence of CDK7/Cyclin H/MNAT1 (P51948 whole entry, further chain): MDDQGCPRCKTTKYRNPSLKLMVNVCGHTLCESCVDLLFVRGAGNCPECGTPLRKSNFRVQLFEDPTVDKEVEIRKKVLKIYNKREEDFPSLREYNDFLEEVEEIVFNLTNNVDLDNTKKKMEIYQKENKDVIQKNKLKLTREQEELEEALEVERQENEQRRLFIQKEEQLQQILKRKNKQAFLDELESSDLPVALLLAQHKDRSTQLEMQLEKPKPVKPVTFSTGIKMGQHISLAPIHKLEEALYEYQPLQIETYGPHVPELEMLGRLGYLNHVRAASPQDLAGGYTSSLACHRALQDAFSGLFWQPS

[3] = molecular target: Cyclin-dependent kinase 9 (Homo sapiens) (UniProt P50750); experiment: Inhibition of CDK9 in human HCT116 cells assessed as induction of dephosphorylation of RNA polymerase 2 S2/S5 residues at 0.5 to 1 uM after 24 hrs by Western blot analysis; type: cell-based
[4] = molecular target: Cyclin-dependent kinase 1/cyclin B1 (Homo sapiens, UniProt P06493); experiment: biochemical
Sequence of Cyclin-dependent kinase 1/cyclin B1 (P06493 whole entry): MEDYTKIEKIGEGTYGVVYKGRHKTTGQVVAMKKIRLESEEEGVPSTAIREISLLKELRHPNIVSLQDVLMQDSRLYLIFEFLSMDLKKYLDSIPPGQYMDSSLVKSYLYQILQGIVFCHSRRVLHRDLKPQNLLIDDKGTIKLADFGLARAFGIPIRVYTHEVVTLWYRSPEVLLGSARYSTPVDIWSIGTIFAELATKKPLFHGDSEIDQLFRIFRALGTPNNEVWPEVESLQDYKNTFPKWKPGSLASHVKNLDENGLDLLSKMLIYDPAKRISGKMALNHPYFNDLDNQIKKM
Sequence of Cyclin-dependent kinase 1/cyclin B1 (P14635 whole entry, further chain): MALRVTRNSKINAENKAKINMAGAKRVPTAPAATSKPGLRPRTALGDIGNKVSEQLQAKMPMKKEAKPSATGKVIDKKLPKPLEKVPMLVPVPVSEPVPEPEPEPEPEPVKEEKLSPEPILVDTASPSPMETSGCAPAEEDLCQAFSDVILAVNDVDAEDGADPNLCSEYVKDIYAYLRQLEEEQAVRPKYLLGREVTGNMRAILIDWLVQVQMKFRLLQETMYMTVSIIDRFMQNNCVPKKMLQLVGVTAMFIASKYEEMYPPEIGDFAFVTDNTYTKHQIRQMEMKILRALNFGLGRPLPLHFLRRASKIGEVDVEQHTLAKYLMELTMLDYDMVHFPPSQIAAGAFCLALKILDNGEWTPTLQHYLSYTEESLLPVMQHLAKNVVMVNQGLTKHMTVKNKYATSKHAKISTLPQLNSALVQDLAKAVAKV

HCT-116 [5] = experiment: Induction of cell cycle arrest in human HCT116 cells assessed as accumulation at G2/M phase at 0.07 to 0.8 uM after 24 hrs by propidium iodide-staining based flow cytometry relative to control; type: functional
[6] = molecular target: T1, Cyclin-dependent kinase 5/CDK5 activator 1 (Homo sapiens) (UniProt Q00535+Q15078); experiment: Inhibition of CDK5/p25 in human HCT116 cells assessed as induction of dephosphorylation of FAK at Ser732 residue at 0.5 to 1 uM after 24 hrs by Western blot analysis; type: cell-based
T1 sequence (Q00535 whole entry): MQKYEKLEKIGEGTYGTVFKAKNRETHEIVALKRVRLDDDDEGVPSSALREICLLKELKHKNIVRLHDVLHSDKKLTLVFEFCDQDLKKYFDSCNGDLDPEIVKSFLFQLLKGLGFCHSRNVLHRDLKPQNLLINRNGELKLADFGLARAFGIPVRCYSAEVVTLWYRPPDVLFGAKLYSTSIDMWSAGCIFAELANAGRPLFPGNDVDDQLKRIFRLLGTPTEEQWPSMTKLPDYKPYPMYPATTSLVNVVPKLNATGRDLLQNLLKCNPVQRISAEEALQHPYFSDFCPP
T1 sequence (Q15078 99-307 partner limits assumed): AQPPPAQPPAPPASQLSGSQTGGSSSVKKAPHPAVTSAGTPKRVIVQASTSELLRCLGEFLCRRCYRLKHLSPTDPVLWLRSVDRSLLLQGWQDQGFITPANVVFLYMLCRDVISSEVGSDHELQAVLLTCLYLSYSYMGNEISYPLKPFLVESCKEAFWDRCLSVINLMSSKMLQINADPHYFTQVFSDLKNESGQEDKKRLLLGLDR

[7] = molecular target: Cyclin-dependent kinase 5/CDK5 activator 1 (Homo sapiens, UniProt Q00535); experiment: biochemical
Sequence of Cyclin-dependent kinase 5/CDK5 activator 1 (Q00535 whole entry): as the sequence (Q00535 whole entry) above
Sequence of Cyclin-dependent kinase 5/CDK5 activator 1 (Q15078 whole entry, further chain): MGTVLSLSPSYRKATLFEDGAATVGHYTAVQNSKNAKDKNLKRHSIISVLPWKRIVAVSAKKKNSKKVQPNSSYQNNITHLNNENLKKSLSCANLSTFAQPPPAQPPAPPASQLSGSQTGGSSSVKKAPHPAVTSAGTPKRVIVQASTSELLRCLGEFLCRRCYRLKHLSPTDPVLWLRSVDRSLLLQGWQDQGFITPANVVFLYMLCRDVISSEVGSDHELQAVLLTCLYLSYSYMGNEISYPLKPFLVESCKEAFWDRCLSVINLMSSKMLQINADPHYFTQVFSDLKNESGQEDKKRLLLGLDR

HCT-116 [8] = experiment: Induction of cell cycle arrest in CDK2 knocked out human HCT116 cells assessed as accumulation at G2/M phase at 0.5 to 3.9 after 24 hrs by propidium iodide-staining based flow cytometry; type: functional
CDK2/Cyclin A2 = CDK2/Cyclin A2 (Homo sapiens, UniProt P24941)
[9] = molecular target: Cyclin-dependent kinase 2/cyclin E1 (Homo sapiens, UniProt P24941); experiment: biochemical
Aurora kinase A = molecular target: T2, Aurora kinase A (Homo sapiens, UniProt O14965); experiment: Inhibition of GST-tagged AURORA A (unknown origin) expressed in baculovirus infected Sf9 cells using MBP as substrate
T2 sequence (O14965 whole entry): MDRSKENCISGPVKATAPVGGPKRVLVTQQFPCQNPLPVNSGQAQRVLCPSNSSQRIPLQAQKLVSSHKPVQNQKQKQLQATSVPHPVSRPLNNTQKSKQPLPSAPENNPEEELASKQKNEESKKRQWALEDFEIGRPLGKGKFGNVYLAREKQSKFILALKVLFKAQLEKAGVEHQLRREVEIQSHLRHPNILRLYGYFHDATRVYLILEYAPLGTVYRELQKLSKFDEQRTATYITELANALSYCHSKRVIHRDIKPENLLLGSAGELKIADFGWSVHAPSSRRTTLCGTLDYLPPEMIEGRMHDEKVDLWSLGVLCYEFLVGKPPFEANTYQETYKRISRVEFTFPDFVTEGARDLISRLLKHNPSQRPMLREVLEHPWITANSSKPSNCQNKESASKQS

Aurora kinase B [10] = molecular target: T3, Aurora kinase B (Homo sapiens, UniProt Q96GD4); experiment: Inhibition of AURORA B in human HCT116 cells assessed as reduction in histone H3 phosphorylation at S10 residues after 24 hrs by Western blot analysis; type: cell-based
T3 sequence (Q96GD4 whole entry): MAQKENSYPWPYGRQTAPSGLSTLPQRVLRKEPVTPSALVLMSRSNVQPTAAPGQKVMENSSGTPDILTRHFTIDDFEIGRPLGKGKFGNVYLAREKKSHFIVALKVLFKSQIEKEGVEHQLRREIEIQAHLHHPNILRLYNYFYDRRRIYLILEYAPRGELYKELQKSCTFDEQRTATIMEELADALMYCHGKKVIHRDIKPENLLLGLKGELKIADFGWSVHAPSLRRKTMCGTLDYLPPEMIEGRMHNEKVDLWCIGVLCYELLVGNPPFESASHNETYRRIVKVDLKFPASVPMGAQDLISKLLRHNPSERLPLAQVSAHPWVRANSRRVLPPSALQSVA

Aurora kinase B [11] = molecular target: T3, Aurora kinase B; experiment: biochemical
[12] = molecular target: Cyclin-dependent kinase 1 (Homo sapiens) (UniProt P06493); experiment: Inhibition of CDK1 (unknown origin) at 10 uM
CDK9/cyclin T1 = CDK9/cyclin T1 (Homo sapiens, UniProt P50750); experiment: biochemical
Sequence of CDK9/cyclin T1 (O60563 whole entry): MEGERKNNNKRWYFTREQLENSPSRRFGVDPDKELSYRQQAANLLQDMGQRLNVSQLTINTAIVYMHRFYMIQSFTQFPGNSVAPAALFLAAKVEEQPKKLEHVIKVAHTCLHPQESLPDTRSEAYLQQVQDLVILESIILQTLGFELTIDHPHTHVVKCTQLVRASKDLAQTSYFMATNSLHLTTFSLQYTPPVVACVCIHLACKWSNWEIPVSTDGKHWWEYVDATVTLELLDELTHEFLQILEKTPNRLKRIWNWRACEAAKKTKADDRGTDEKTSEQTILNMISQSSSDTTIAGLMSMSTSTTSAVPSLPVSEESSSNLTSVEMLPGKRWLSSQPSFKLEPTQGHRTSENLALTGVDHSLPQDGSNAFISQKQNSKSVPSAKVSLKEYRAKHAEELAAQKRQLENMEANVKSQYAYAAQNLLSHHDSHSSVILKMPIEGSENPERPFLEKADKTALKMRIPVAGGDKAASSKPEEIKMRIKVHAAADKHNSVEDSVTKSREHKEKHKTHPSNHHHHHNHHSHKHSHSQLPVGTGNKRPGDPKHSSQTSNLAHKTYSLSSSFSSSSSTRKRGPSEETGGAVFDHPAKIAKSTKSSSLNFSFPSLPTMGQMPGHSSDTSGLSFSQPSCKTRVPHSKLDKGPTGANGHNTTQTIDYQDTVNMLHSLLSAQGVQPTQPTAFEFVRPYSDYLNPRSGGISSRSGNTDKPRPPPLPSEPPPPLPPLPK
Sequence of CDK9/cyclin T1 (P50750 whole entry): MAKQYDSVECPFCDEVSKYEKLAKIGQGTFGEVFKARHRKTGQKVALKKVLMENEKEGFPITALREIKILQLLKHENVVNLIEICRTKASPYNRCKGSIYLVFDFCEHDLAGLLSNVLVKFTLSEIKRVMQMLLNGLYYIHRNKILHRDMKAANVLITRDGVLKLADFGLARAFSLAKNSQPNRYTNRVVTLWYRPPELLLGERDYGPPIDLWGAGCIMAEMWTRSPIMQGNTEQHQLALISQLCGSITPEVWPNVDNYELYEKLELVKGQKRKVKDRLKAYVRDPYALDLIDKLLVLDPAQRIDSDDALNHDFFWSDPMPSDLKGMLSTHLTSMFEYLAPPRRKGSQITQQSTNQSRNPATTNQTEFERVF

HCT-116 [13] = experiment: Induction of cell cycle arrest in human HCT116 cells assessed as accumulation at 8N stage at 1.25 to 5 uM after 24 hrs by propidium iodide-staining based flow cytometry; type: functional
Homo sapiens [14] = species on record: Homo sapiens; experiment: Selectivity index, ratio of IC50 for inhibition of His-tagged CDK1/cyclin B1 (unknown origin) expressed in Baculovirus infected Sf9 cells to IC50 for inhibition of GST-tagged AURORA B (unknown origin) expressed in baculovirus infected Sf9 cells
[15] = molecular target: Cyclin-dependent kinase 2 (Homo sapiens, UniProt P24941)
HCT-116 [16] = experiment: Induction of cell cycle arrest in human HCT116 cells assessed as accumulation at G2/M phase after 24 hrs by propidium iodide-staining based flow cytometry; type: functional
Homo sapiens [17] = species on record: Homo sapiens; experiment: Selectivity index, ratio of IC50 for inhibition of His-tagged CDK1/cyclin B1 (unknown origin) expressed in Baculovirus infected Sf9 cells to IC50 for inhibition of GST-tagged AURORA A (unknown origin) expressed in baculovirus infected Sf9 cells
[18] = molecular target: T1, Cyclin-dependent kinase 5/CDK5 activator 1 (Homo sapiens); experiment: Inhibition of CDK5/p25 in human HCT116 cells assessed as induction of dephosphorylation of FAK at Ser732 residue at 1 to 5 uM after 24 hrs by Western blot analysis; type: cell-based
HCT-116 [19] = experiment: Induction of cell cycle arrest in CDK2 knocked out human HCT116 cells assessed as accumulation at G2/M phase at 0.8 to 5.9 after 24 hrs by propidium iodide-staining based flow cytometry; type: functional
HCT-116 [20] = experiment: Induction of cell cycle arrest in human HCT116 cells assessed as accumulation at G2/M phase at 0.2 to 13.2 uM after 24 hrs by propidium iodide-staining based flow cytometry relative to control; type: functional
HCT-116 [21] = experiment: Induction of cell cycle arrest in human HCT116 cells assessed as accumulation at S phase at 2.6 to 29.6 uM after 24 hrs by propidium iodide-staining based flow cytometry; type: functional
[22] = molecular target: T4, N-lysine methyltransferase KMT5A (Homo sapiens, UniProt Q9NQR1); experiment: Inhibition of SETD8 (unknown origin)
T4 sequence (Q9NQR1 whole entry): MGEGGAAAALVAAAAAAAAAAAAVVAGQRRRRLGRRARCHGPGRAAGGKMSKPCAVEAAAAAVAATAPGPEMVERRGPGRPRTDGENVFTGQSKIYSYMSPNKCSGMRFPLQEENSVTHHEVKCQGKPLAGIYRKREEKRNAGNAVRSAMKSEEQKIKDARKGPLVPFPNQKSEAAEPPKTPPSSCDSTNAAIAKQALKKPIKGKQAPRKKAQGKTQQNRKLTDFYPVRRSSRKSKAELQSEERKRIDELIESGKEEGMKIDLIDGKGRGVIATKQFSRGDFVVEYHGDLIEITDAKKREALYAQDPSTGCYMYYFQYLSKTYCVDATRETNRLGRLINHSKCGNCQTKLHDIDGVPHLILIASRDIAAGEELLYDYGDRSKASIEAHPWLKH

HCT-116 [23] = experiment: Induction of cell cycle arrest in human HCT116 cells assessed as accumulation at G2/M phase at 5.9 to […] after 24 hrs by propidium iodide-staining based flow cytometry; type: functional
HCT-116 [24] = experiment: Induction of cell cycle arrest in human HCT116 cells assessed as accumulation at G1 phase at 0.03 to 0.8 uM after 24 hrs by propidium iodide-staining based flow cytometry; type: functional
HCT-116 [25] = experiment: Induction of cell cycle arrest in human HCT116 cells assessed as accumulation at G2/M phase at 0.03 to 0.8 uM after 24 hrs by propidium iodide-staining based flow cytometry; type: functional

Sequence of Cyclin-dependent kinase 4/cyclin D1 (P11802 whole entry): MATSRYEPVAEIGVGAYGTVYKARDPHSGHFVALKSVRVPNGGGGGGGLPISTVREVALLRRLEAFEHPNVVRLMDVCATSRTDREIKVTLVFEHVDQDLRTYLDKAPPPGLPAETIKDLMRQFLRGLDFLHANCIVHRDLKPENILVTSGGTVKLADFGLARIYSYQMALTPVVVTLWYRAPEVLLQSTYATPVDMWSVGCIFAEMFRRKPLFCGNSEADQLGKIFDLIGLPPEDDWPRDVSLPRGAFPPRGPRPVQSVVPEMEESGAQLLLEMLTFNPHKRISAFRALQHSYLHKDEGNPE
Sequence of Cyclin-dependent kinase 4/cyclin D1 (P24385 whole entry, further chain): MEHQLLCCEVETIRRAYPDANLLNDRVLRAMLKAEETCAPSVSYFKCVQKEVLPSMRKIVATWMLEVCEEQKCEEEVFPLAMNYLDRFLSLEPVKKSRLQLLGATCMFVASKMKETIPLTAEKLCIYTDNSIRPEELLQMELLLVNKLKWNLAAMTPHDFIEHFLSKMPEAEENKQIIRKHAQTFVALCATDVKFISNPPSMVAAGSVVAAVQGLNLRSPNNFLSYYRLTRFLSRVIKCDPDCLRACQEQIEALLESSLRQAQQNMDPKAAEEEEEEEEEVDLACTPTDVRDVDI

Row | SMILES | IC50 [1] [nM] | IC50 (CDK7/Cyclin H/MNAT1) [nM] | IC50 [4] [nM] | IC50 [7] [nM] | IC50 (CDK2/Cyclin A2) [nM] | IC50 [9] [nM] | IC50 (CDK9/cyclin T1) [nM] | also measured
1 | OCCCNc1cc(-c2ccnc(Nc3cccc(Cl)c3)n2)ccn1 | 216 | 200 | 26 | 10 | 4 | 3 |  | inhibition [2]: inactive; inhibition [3]: inactive; Activity (HCT-116 [5]): <=30%; inhibition [6]: Active; Activity (HCT-116 [8]): Active
2 | CCN(CC)C(=O)c1ccc(Nc2nc(OCC3CCCCC3)c3nc[nH]c3n2)cc1 | 940 | 2300 | 5800 | 8800 | 407000 | 1100 | 5100 | IC50 (Aurora kinase A): 67 nM; inhibition (Aurora kinase B [10]): Dose-dependent effect; IC50 (Aurora kinase B [11]): 35 nM; inhibition [12]: 44%; Activity (HCT-116 [13]): Active; Ratio IC50 (Homo sapiens [14]): 6 to 10; IC50 [15]: 400 nM; Activity (HCT-116 [16]): >=60%; Ratio IC50 (Homo sapiens [17]): 6 to 10
3 | CCCCOc1c(C(=O)c2c(F)cc(C)cc2F)c[nH]c2nncc1-2 | 222 | 1600 | 14 | 258 | 71 | 6 | 1800 | inhibition [18]: Active; Activity (HCT-116 [19]): Active; Activity (HCT-116 [20]): 30 - 60%
4 | Cc1ccc(NC2=CC(=O)c3sc(C)nc3C2=O)cc1 | 9500 | > 20000 | > 20000 | > 20000 | > 20000 | > 20000 | > 20000 | Activity (HCT-116 [21]): 15%; IC50 [22]: 500 nM
5 | CC[C@H](CO)Nc1nc(Nc2cccc(-c3ccccn3)c2)c2ncn(C(C)C)c2n1 | > 20000 | 822 | 3700 | 215 | 290 | 93 | 8000 | Activity (HCT-116 [23]): <=30%
6 | CCN1CCN(Cc2ccc(Nc3ncc(F)c(-c4cc(F)c5nc(C)n(C(C)C)c5c4)n3)nc2)CC1 [ABEMACICLIB] |  |  |  |  |  |  |  | Activity (HCT-116 [24]): Active; Activity (HCT-116 [25]): <=30%
